This is an account of results in PubChem BioAssay AID624113 (National Center for Advancing Translational Sciences (NCATS), 2012).

In the series the test system is mouse plasma stability, percent remaining. Put plainly: qHTS Assay for Inhibitors of Bacillus subtilis Sfp phosphopantetheinyl transferase (PPTase): Mouse Plasma Stability. The following applies: stronger effect = higher value. From the text:
The covalent attachment of a phosphopantetheinyl (4'-PP) arm to a variety of synthases and other proteins is a key posttranslational protein modification. The 4'-PP is installed on the proteins post-translationally from coenzyme A (CoA) on a conserved serine residue by action of phosphopantetheinyl transferase (PPTase) enzymes. Phosphopantetheinylation is essential for synthase activity, and removal of the PPTase gene precludes natural product synthesis in microorganisms, or in the case of fatty acid biosynthesis, renders the organism unviable. PPTase enzymes belong to a distinct structural superfamily. Within bacteria, these enzymes are grouped into two classes based upon primary structure, the AcpS-Type and Sfp-Type PPTases.
Sfp-type PPTases, corresponding to an activator of surfactin production in Bacillus subtilis, are responsible for modifying type I polyketide and nonribosomal peptide synthases of prokaryotes. Sfp-type PPTases are responsible for the activation of a variety of pathogen-associated virulence factors. […]
5 uM of compound is incubated with mouse liver microsome; the reference compounds are verapamil and warfarin. Compounds are incubated and samples are analyzed with LC-MS/MS.
In general terms: In qHTS, concentration-response curves come from the screen itself.

With `COc1ccnc(NC(=S)N2CCN(c3ncc(C(F)(F)F)cc3Cl)CC2)c1`, the percent remaining was 100%.
